Legend:
[1] = Thermal conversion of 3-sulfonyloxybutyrate to propylene, headspace GC-FID; assay type: physicochemical; settings: 50 mM substrate, 50 mM Tris-HCl pH 7.5, 0 to 90 h
Experimental: The thermal conversion assays containing, in a total volume of 0.5 mL, 50 mM 3-sulfonyloxybutyrate and 50 mM Tris-HCl pH 7.5, were incubated in 2 ml sealed glass vials (Interchim) at 37° C. and 65° C. with shaking. Propylene production at different incubation times (from 0 to 90 h) was analyzed as follows. One ml of the gaseous phase was collected and injected into a gas chromatograph Varian 430-GC equipped with FID detector. Nitrogene was used as carrier gas with a flow rate of 1.5 ml/min. Volatile compounds were separated on RT-Alumina Bond/Na2SO4 column (Restek) using an isothermal mode at 130° C. Gaseous product of thermal decomposition of disodium (R,S)-3-sulfonyloxybutyrate was identified by comparison with propylene standard (Sigma, Aldrich). Under these GC conditions, the retention time for propylene was 3.2 min. […] (FIGS. 6 and 7).

[2] = test system: sulfotransferase CurM (PKS ST); assay: Sulfotransferase activity assay, sulfurylation of 3-hydroxybutyrate with PAPS, MS detection; assay type: biochemical, Moorea producens (formerly Lyngbya majuscala) 19L; settings: 5 mM (R,S)-3-hydroxybutyrate, 5 mM PAPS, 5 mg/ml enzyme, 1.5 hours at 37° C., pH 7.5
Description: Sequence of sulfotransferase domain of polyketide synthase CurM (PKS ST) inferred from the genome of Moorea producens (formerly Lyngbya majuscala) 19L was generated by oligonucleotide concatenation to fit the codon usage of E. coli. A stretch of 6 histidine codons was inserted after the methionine initiation codon to provide an affinity tag for purification. The gene thus synthesized was cloned in a pET25b(+) expression vector (the vectors were constructed by GENEART AG). After transformation of the E. coli strain BL21 (DE3), the protein was produced according to the procedure described in Example 1 and sulfotransferase activity was assayed under the following conditions
5 mM (R,S)-3-hydroxybutyrate
5 mg/ml purified sulfotransferase (ST) CurM.
Control reaction was performed using the same reaction mixture without addition of the enzyme. The assays were incubated for 1.5 hours at 37° C. An aliquot of 200 μl of each assay was then removed, filtered through a 0.45 μm filter and the filtrated solution was transferred into a clean vial. MS analyses were performed in negative electrospray mode by direct injection of sample using PE SCIEX API 2000 quadrupole instrument. The presence of 3-sulfonyloxybutyrate was evaluated. […] The peak at m/z=182.8 was assigned to mono-deprotonated form of 3-sulfonyloxybutyrate, [M-H]^−. […]

Compound	propylene production by thermal conversion ([1]; 37° C.)	propylene production by thermal conversion ([1]; 37° C., listed as sulfonylbutyrate)	propylene production by thermal conversion ([1]; 65° C.)	transfer of the sulfate group from PAPS onto hydroxyl group (formation of 3-sulfonyloxybutyrate) [2]
CC(CC(=O)[O-])OS(=O)(=O)[O-].[Na+].[Na+] (racemic) [disodium (R,S)-3-sulfonyloxybutyrate, Disodium (R,S)-3-sulfonyloxybutyrate]	Significant production of propylene	already occurs	Significant production of propylene	–
CC(O)CC(=O)O (stereo not shown) [3-hydroxybutyrate]	–	–	–	catalyzes transfer of the sulfate group

— patent US9803220B2, “Production of alkenes from 3-hydroxy-1-carboxylic acids via 3-sulfonyloxy-1-carboxylic acids” (Scientist of Fortune S.A., priority 2012, dated 2017)
